Experimental data taken from PubChem BioAssay (NCI).
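Cells were grown in 96-well plates and exposed to each compound for 48 hours at five concentrations; endpoints were interpolated linearly between bracketing concentrations, or set to the highest concentration if not reached. GI50 marks 50% less growth. TGI marks complete inhibition of growth.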

Tested on: MDA-MB-468 breast
Test: DTP human tumour cell line panel, 48 h

| Structure (SMILES) | GI50 [nM] | TGI [nM] |
| --- | --- | --- |
| Cc1ccc(NCCNCC(C)(C)O)c2c(=O)c3ccc(Cl)cc3sc12 | 1700 | 3240 |
| N[C@@H]1CCCN(c2c(Br)cnc3[nH]cc(NC(=O)C4CC4)c23)C1 | 2110 | 36200 |
| Cc1cc(NC(=O)NCc2ccc(N3C(N)=NC(N)=NC3(C)C)cc2)ccc1S(=O)(=O)F | 7990 | > 100000 |
| CC(=O)c1cc2c(N)c(C(=O)Nc3cccc4ccccc34)sc2nc1C | 1640 | 31100 |
| O=C1C(Cl)=C(Nc2ccc(S(=O)(=O)c3ccc(NC4=C(Cl)C(=O)c5ccccc5C4=O)cc3)cc2)C(=O)c2ccccc21 | 1500 | 3090 |
| CC[C@H](C)[C@H](NC(=O)[C@H]1CCCCN1C)C(=O)N(C)[C@H](CCc1nc(C(=O)N[C@@H](Cc2ccccc2)C[C@H](C)C(=O)O)cs1)C(C)C | 85 | > 25000 |
| CCN(CC)c1ccc(/C=N/NC(=O)Cc2ccc(Nc3ccnc(C(F)(F)F)c3)cc2)c(O)c1 | 588 | > 60300 |
| CCCCNc1ncnc2c1cnn2-c1ccccc1 | 2240 | 7600 |
| COc1cc(-c2nc(-c3ccccc3)c(-c3ccccc3)[nH]2)cc(OC)c1O | 15200 | 37700 |
| Cc1ccc(S(=O)(=O)OC[C@@]2(C)CC[C@]3(C)CC[C@]4(C)C(=C3C2)C=C[C@@H]2[C@@]3(C)CCCNC(C)(C)[C@@H]3CC[C@]24C)cc1 | 1590 | 3220 |
| CC[C@H](C)[C@H](NC(=O)C12C3C4C1C1C2C3C41NC)C(=O)N(C)[C@H](C[C@@H](OC(C)=O)c1nc(C(=O)N[C@@H](Cc2ccccc2)C[C@H](C)C(=O)OC)cs1)C(C)C (some centres undefined) | 217 | > 5490 |
| Nc1ncn([C@H]2CC(O)[C@@H](CO)S2)c(=O)n1 (some centres undefined) | 5800 | > 100000 |
| COC(=O)c1c(C)nc(C)c2c1C(=O)C(Br)=C(NCc1ccccc1)C2=O | 1110 | 2750 |
| COc1ccc2nc3ccccc3c(NCCNCCO)c2c1 | 351 | 1370 |
| CC1(C)CC(O)CC(C)(C)N1O | > 100000 | > 100000 |
| CN(C)CCCN1c2ccccc2Sc2ccc(C(F)(F)F)cc21 | 1250 | 2650 |
| CN1CCCCC1CCN1c2ccccc2Sc2ccc(Br)cc21 (centres undefined) | 1780 | 3650 |
| CCn1cc(C(=O)O)c(=O)c2cc(F)c(N3CCN(S(=O)(=O)c4ccc(Cl)cc4Cl)CC3)cc21 | 1980 | 5500 |
| Cn1c(=O)c(-c2ccccc2Cl)cc2cnc(NC3CCOCC3)nc21 | > 19900 | > 25000 |

| Structure (SMILES) | GI50 [nM] | TGI [nM] |
| --- | --- | --- |
| NC(=NCCCCCCN=C(N)/N=C(\N)Nc1ccc(Cl)cc1)/N=C(\N)Nc1ccc(Cl)cc1 | 952 | 2280 |
| COc1cccc(C2CC(=O)Nc3c2c(C)nn3-c2nc3ccccc3[nH]2)c1OC (centres undefined) | 4110 | 32600 |
| CNC(=O)CCN1CCN(CC/C=C2\c3ccccc3Sc3ccc(Cl)cc32)CC1 | 3630 | 16900 |
| COc1cc2c(c(OC)c1OC)-c1cc(I)c(O)cc1[C@@H](NC(C)=O)CC2 | 24.3 | 71.5 |
| Clc1ccc2c(NCCNc3nc(N4CCOCC4)nc4ccccc34)ccnc2c1 | 1910 | 4530 |
| COc1cc(N=Nc2cc(Cc3ccc(N(C)C)cc3)c(N)cc2N(C)C)c2ncccc2c1 | 226 | 622 |
| CC1(C)N=C(N)N=C(N)N1c1ccc(CCCC(=O)Nc2ccc(S(=O)(=O)F)cc2)cc1 | 3330 | > 100000 |
| [Br][Pb]([c]1ccccc1)([c]1ccccc1)[c]1ccccc1 | 148 | 294 |
| COc1cc2ncn(-c3cc(OCc4ccccc4C(F)(F)F)c(C(N)=O)s3)c2cc1OC | 61.9 | 857 |
| CC[C@]12C=CCN3CC[C@]4(C(=C(C(=O)OC)C1)Nc1cc5c(cc14)[C@@H]1[C@H](O5)[C@@H](O)[C@@]4(CC)CC(C(=O)OC)=C5Nc6cc(O)ccc6[C@@]56CCN1C46)C32 (some centres undefined) | 38.4 | 1510 |
| Nc1ccc(CC[C@H]2CCC/C=C/[C@@H]3C[C@H](O)C[C@H]3[C@H](O)/C=C/C(=O)O2)cc1 | 10.6 | 37.4 |
| Cc1ccc(-c2nc(NCCOCCOCCN)nc(N3CCN(c4ccccn4)CC3)n2)cc1 | 7040 | 18000 |
| CN1C2C=CC(=O)C1C1C(=O)N(c3ccccc3)C(=O)C12 (centres undefined) | 2450 | 9030 |
| Nc1nc(SCc2ccccc2CCl)c2[nH]cnc2n1 | 11900 | 30800 |
| CCN(CC)CCOC(COc1cc(C)cc(C)c1)COc1cc(C)cc(C)c1 | 1740 | 3550 |
| O=C(/C=C/c1ccc(O)c(O)c1)N1CCN(c2ccc(Cl)cc2)CC1 | 2450 | 13000 |
| Cc1cc(N2CCC(N3CCCC3)CC2)nc(/N=C(\N)Nc2ccc(Cl)c(Cl)c2)n1 | 1400 | 2730 |
| CCCCCCCCCCCC1N=C(N)N=C(N)N1c1cccc(Br)c1 (centres undefined) | 528 | 1980 |
